Assay results taken from US11939340B2, “CDK inhibitors and their use as pharmaceuticals” (Prelude Therapeutics Incorporated, priority 2022, dated 2024).

What was measured:
[1] = biological target: T1, CDK4/Cyclin D1 (Homo sapiens, UniProt P11802); assay: CDK4/CyclinD1 Enzymatic Activity Assay (TR-FRET); type: biochemical; conditions: CDK4/CyclinD1 1 nM, ATP 2 mM, read-out: CDK4_D1 IC50
T1 construct: purchased ProQinase; host or cells: insect cell
Method: CDK4/CyclinD1 Enzymatic Activity Assay
The inhibitory activity of compounds was evaluated in vitro using TR-FRET assay with white 384-well low volume microplate (Greiner Bio-One). CDK4/Cyclin D1 catalyzed phosphorylation of peptide in the presence and absence of compounds was measured and used in IC50 determination. Recombinant protein complex CDK4/Cyclin D1, expressed from insect cell, was purchased from ProQinase. Testing compounds were dissolved in DMSO at 1 mM and tested in 9-dose IC50 mode. The reaction mixture was prepared by mixing CDK4/CyclinD1 (1 nM final), ULight-4E-BP1 (100 nM final, Perkinelmer, TRF0128-D), and ATP (2 mM final) in assay buffer (20 mM of HEPES pH 7.4, 1 mM of EGTA, 0.05% BSA, 0.005% Tween 20, and 1 mM TCEP). The compound of interest in DMSO was added to each well in 3-fold serial dilution by the dispenser (TECAN D300E) to make a 9.9 μL of reaction mixture. After 20 minutes preincubation at room temperature, 0.1 μL MgCl2 (10 mM final) was added to initiate the reaction. Following a 45 minute incubation at 37° C., the reaction was stopped by addition of 2 μL of quenching buffer consisting of Lance detection buffer (Perkinelmer CR97-100C), LANCE Ultra Europium-anti-P-4E-BP1 (Perkinelmer, TRF0216-D), EDTA, and incubated at room temperature for additional 60 minutes in dark. The reaction signal was measured by Envision multimode plate reader (PerkinElmer, 2102-0010). IC50 values were determined by fitting the data to the standard 4 parameters with Hill Slope using GraphPad Prism software.

[2] = biological target: CDK2/Cyclin E2 (Homo sapiens, UniProt P24941); assay: CDK2/CyclinE2 Enzymatic Activity Assay (TR-FRET); type: biochemical; conditions: CDK2/CyclinE2 1 nM, ATP 1 mM, read-out: CDK2_El IC50
Method: CDK2/CyclinE2 Enzymatic Activity Assay
The inhibitory activity of compounds was evaluated in vitro using TR-FRET assay with white 384-well low volume microplate (Greiner Bio-One). CDK2/Cyclin E2 catalyzed phosphorylation of peptide in the presence and absence of compounds was measured and used in IC50 determination. Recombinant protein complex CDK2/Cyclin E2, expressed from insect cell, was purchased from ProQinase. Testing compounds were dissolved in DMSO at 1 mM and tested in 9-dose IC50 mode. The reaction mixture was prepared by mixing CDK2/CyclinE2 (1 nM final), ULight-4E-BP1 (50 nM final, Perkinelmer, TRF0128-D), and ATP (1 mM final) in assay buffer (20 mM of HEPES pH 7.4, 1 mM of EGTA, 0.05% BSA, 0.005% Tween 20, and 1 mM TCEP). The compound of interest in DMSO was added to each well in 3-fold serial dilution by dispenser (TECAN D300E) to make a 9.9 μL of reaction mixture. After 20 minutes preincubation at room temperature, 0.1 μL MgCl2 (10 mM final) was added to initiate the reaction. Following a 45 minute incubation at 37° C., the reaction was stopped by addition of 2 μL of quenching buffer consisting of Lance detection buffer (Perkinelmer CR97-100C), LANCE Ultra Europium-anti-P-4E-BP1 (Perkinelmer, TRF0216-D), EDTA, and incubate at room temperature for additional 60 minutes in the dark. The reaction signal was measured by Envision multimode plate reader (PerkinElmer, 2102-0010). IC50 values were determined by fitting the data to the standard 4 parameters with Hill Slope using GraphPad Prism software.

[3] = system: pRB in OVCAR3 cells; assay: pRB ICW Assay in OVCAR3 Cells; type: cell-based; conditions: Homo sapiens, OVCAR-3, incubated with compound for 2 hours, read-out: OVCAR3 p-RB ICW IC50
Method: pRB ICW Assay in OVCAR3 Cells
OVCAR3 cells were maintained in RPMI (Corning, Catalog #: 10-040-CV) supplemented with 10% v/v FBS (Gibco, Catalog #: 26140-079), 1% v/v Penicillin Streptomycin (Gibco, Catalog #15140-122.) OVCAR3 cells grown at log phase were trypsinized, counted, and resuspended in fresh medium to reach a final density of 6.7e4 cells/mL and 75 μL of culture were dispensed into a 384-well plate (Falcon, cat #353962) using a Multidrop Combi dispenser (Thermo Scientific). The next day, compounds were dispensed as a 9-point, ½ log serial dilution using a Tecan digital dispenser (D300e), and cells were incubated with compound for 2 hours in a humidified incubator at 37° C. A reference compound at a final concentration of 10 μM was used as a control for maximum inhibition. Each compound was tested in duplicates for each experiment. At the end of the incubation, 25 μL of 16% paraformaldehyde (Electron Microscopy, cat #15710) was slowly added to each well and the plate was incubated at room temperature (RT) for 30 minutes to fix cells. Cells were then permeabilized by incubating with 50 μL/well of wash buffer (lx PBS with 0.1% Triton X-100) 5×5 minutes, followed by 1 hour blocking with 30 μL/well of Odyssey blocking buffer (Li—COR, cat #927-40000), at RT. Anti-phosphor RB antibody (Cell signaling 8516S) was diluted 1:1000 in Odyssey blocking buffer and 20 μL was added to all wells and incubated overnight in 4° C. with gently rocking. The next day, cells were washed 5×5 min with 50 μL/well of wash buffer, followed with 1 hour incubation with secondary antibody and DRAQ5 diluted in Odyssey blocking buffer (1:500 dilution for secondary antibody and 1:2000 dilution for DRAQ5), 5×5 min washes, and one last wash with water. Plates were dried in 37° C. oven for 5 minutes and scanned using Li—COR Odyssey CLx imaging system to acquire intensities at 700 and 800 nm channels.

T1 sequence (P11802 whole entry): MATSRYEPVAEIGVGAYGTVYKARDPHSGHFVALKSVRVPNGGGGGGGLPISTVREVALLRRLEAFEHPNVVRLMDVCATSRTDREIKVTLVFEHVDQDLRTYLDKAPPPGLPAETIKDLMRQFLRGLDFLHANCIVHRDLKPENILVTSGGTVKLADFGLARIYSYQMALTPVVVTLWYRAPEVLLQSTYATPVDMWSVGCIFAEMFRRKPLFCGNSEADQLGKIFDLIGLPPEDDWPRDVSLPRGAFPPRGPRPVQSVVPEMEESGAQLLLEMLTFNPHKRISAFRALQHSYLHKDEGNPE
T1 sequence (P24385 whole entry partner): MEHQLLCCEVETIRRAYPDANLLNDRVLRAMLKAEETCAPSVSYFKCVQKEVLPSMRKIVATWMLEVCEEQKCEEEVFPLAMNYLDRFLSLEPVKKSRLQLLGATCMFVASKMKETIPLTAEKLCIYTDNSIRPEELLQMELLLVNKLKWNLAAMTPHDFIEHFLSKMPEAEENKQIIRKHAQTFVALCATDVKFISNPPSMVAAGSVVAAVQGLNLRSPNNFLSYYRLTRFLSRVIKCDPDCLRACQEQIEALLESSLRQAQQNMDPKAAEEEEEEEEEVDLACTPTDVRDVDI

SMILES	IC50 [1]	IC50 [2]	IC50 [3]
CC(C)C12CC(CO)CN1C(=O)c1cc(-c3nc(NC4CCN(S(C)(=O)=O)CC4)ncc3C(F)(F)F)sc12 (stereo not drawn) [Example 31, 7-(Hydroxymethyl)-8a-isopropyl-2-(2-((1-(methylsulfonyl)piperidin-4-yl)amino)-5-(trifluoromethyl)pyrimidin-4-yl)-6,7,8,8a-tetrahydro-4H-thieno[2,3-a]pyrrolizin-4-one]	≤ 100 nM	≤ 100 nM	≤ 100 nM
CCC12CC(F)(F)CN1C(=O)c1cc(-c3nc(NC4CCN(S(C)(=O)=O)CC4)ncc3C(F)(F)F)sc12 (stereo not drawn) [Example 32, 8a-Ethyl-7,7-difluoro-2-(2-((1-(methylsulfonyl)piperidin-4-yl)amino)-5-(trifluoromethyl)pyrimidin-4-yl)-6,7,8,8a-tetrahydro-4H-thieno[2,3-a]pyrrolizin-4-one]	≤ 100 nM	≤ 100 nM	≤ 100 nM
CCC12CC(N(C)C)CN1C(=O)c1cc(-c3nc(NC4CCN(S(C)(=O)=O)CC4)ncc3C(F)(F)F)sc12 (stereo not drawn) [Example 39, 7-(Dimethylamino)-8a-ethyl-2-(2-((1-(methylsulfonyl)piperidin-4-yl)amino)-5-(trifluoromethyl)pyrimidin-4-yl)-6,7,8,8a-tetrahydro-4H-thieno[2,3-a]pyrrolizin-4-one]	≤ 100 nM	≤ 100 nM	≤ 100 nM
[2H]C([2H])([2H])NC1CN2C(=O)c3cc(-c4nc(NC5CCN(S(C)(=O)=O)CC5)ncc4C(F)(F)F)sc3C2(CC)C1 (stereo not drawn) [Example 42, 8a-Ethyl-7-((methyl-d3)amino)-2-(2-((1-(methylsulfonyl)piperidin-4-yl)amino)-5-(trifluoromethyl)pyrimidin-4-yl)-6,7,8,8a-tetrahydro-4H-thieno[2,3-a]pyrrolizin-4-one]	≤ 100 nM	≤ 100 nM	≤ 100 nM
CCC12CC(N)CN1C(=O)c1cc(-c3nc(N[C@H]4CCN(S(C)(=O)=O)C[C@H]4C)ncc3C(F)(F)F)sc12 (stereo partly drawn) [Example 45, 7-Amino-8a-ethyl-2-(2-(((3R,4S)-3-methyl-1-(methylsulfonyl)piperidin-4-yl)amino)-5-(trifluoromethyl)pyrimidin-4-yl)-6,7,8,8a-tetrahydro-4H-thieno[2,3-a]pyrrolizin-4-one]	≤ 100 nM	≤ 100 nM	≤ 100 nM
CCC12CC(F)(F)CN1C(=O)c1cc(-c3nc(NC4CCN(S(=O)(=O)c5cnn(C)c5)CC4)ncc3C(F)(F)F)sc12 (stereo not drawn) [Example 35, 8a-Ethyl-7,7-difluoro-2-(2-((1-((1-methyl-1H-pyrazol-4-yl)sulfonyl)piperidin-4-yl)amino)-5-(trifluoromethyl)pyrimidin-4-yl)-6,7,8,8a-tetrahydro-4H-thieno[2,3-a]pyrrolizin-4-one]	≤ 100 nM	≤ 100 nM	≤ 100 nM
CCC12CC(NC)CN1C(=O)c1cc(-c3nc(N[C@H]4CCN(S(C)(=O)=O)C[C@H]4F)ncc3C(F)(F)F)sc12 (stereo partly drawn) [Example 48, 8a-Ethyl-2-(2-(((3R,4S)-3-fluoro-1-(methylsulfonyl)piperidin-4-yl)amino)-5-(trifluoromethyl)pyrimidin-4-yl)-7-(methylamino)-6,7,8,8a-tetrahydro-4H-thieno[2,3-a]pyrrolizin-4-one]	≤ 100 nM	≤ 100 nM	≤ 100 nM

Other lines, results leading:

IC50 [1]	IC50 [2]	IC50 [3]	SMILES
≤ 100 nM	≤ 100 nM	100 to 500 nM	CCC12CC(NC)CN1C(=O)c1cc(-c3nc(N[C@H]4CCN(S(C)(=O)=O)C[C@H]4C)ncc3C(F)(F)F)sc12 (stereo partly drawn) [Example 43, 8a-Ethyl-2-(2-(((3R,4S)-3-methyl-1-(methylsulfonyl)piperidin-4-yl)amino)-5-(trifluoromethyl)pyrimidin-4-yl)-7-(methylamino)-6,7,8,8a-tetrahydro-4H-thieno[2,3-a]pyrrolizin-4-one]
≤ 100 nM	≤ 100 nM	≤ 100 nM	CCC12CC(NC)CN1C(=O)c1cc(-c3nc(NC4CCN(S(C)(=O)=O)CC4)ncc3C(F)(F)F)sc12 (stereo not drawn) [Example 38, 8a-Ethyl-7-(methylamino)-2-(2-((1-(methylsulfonyl)piperidin-4-yl)amino)-5-(trifluoromethyl)pyrimidin-4-yl)-6,7,8,8a-tetrahydro-4H-thieno[2,3-a]pyrrolizin-4-one]
≤ 100 nM	≤ 100 nM	≤ 100 nM	CCC12CC(NC)CN1C(=O)c1cc(-c3nc(NC4CCN(S(=O)(=O)c5cnn(C)c5)CC4)ncc3C(F)(F)F)sc12 (stereo not drawn) [Example 49, 8a-Ethyl-2-(2-((1-((1-methyl-1H-pyrazol-4-yl)sulfonyl)piperidin-4-yl)amino)-5-(trifluoromethyl)pyrimidin-4-yl)-7-(methylamino)-6,7,8,8a-tetrahydro-4H-thieno[2,3-a]pyrrolizin-4-one]
≤ 100 nM	≤ 100 nM	100 to 500 nM	CC(C)C12CCCCN1C(=O)c1cc(-c3nc(NC4CCN(S(C)(=O)=O)CC4)ncc3C(F)(F)F)sc12 (stereo not drawn) [Example 1, 9a-isopropyl-2-(2-((1-(methylsulfonyl)piperidin-4-yl)amino)-5-(trifluoromethyl)pyrimidin-4-yl)-7,8,9,9a-tetrahydrothieno[2,3-a]indolizin-4(6H)-one]
≤ 100 nM	≤ 100 nM	100 to 500 nM	COC1CN2C(=O)c3cc(-c4nc(NC5CCN(S(C)(=O)=O)CC5)ncc4C(F)(F)F)sc3C2(C(C)C)C1 (stereo not drawn) [Example 30, 8a-Isopropyl-7-methoxy-2-(2-((1-(methylsulfonyl)piperidin-4-yl)amino)-5-(trifluoromethyl)pyrimidin-4-yl)-6,7,8,8a-tetrahydro-4H-thieno[2,3-a]pyrrolizin-4-one]
≤ 100 nM	≤ 100 nM	≤ 100 nM	CC12CCCN1C(=O)c1cc(-c3nc(NC4CCN(S(C)(=O)=O)CC4)ncc3C(F)(F)F)sc12 (stereo not drawn) [Example 20, 8a-Methyl-2-(2-((1-(methylsulfonyl)piperidin-4-yl)amino)-5-(trifluoromethyl)pyrimidin-4-yl)-6,7,8,8a-tetrahydro-4H-thieno[2,3-a]pyrrolizin-4-one]
